Test results published in patent US3995061A, “Pharmaceutical composition and method of using the same” (Chugai Seiyaku Kabushiki Kaisha, priority 1974, dated 1976).
Entries after “also recorded” stand apart in the source; their conditions may differ.

What was measured:
Acute toxicity, rat = conditions: in vivo, male
Source text: (§1) Acute toxicity of the ascochlorin derivatives was observed by the use of Wister-Imamichi strain male rats weighing 230 ± 30 g and ddY strain male and female mice (5 weeks old) weighing 20 ±3 g which were divided into groups of 10 members each. Japanese native male rabbits weighing 2 kg ± 300 g which were divided into groups of five members each were also used. The test animals were orally or intraperitoneally administered with a different ascochlorin derivative as a suspension in 5% gum arabic aqueous solution, and the toxicity was compared with that of control in which ascochlorin was used.

Lipid in liver and aorta = assay: Hypolipidemic activity: change of lipid level in organs and aorta abdominalis, 30 days, high-fat feed; type: in vivo, Wister strain rats; conditions: rat, 10.0 mg/kg oral
Method: Wister strain rats weighing 150 ± 20 g were divided into groups of 10 members each and bred with high-fat feed, the same as that used in Example 1. The rats were orally administered ascochlorin, 4-O-methylascochlorin or ethyl-α-(p-chlorophenoxy) isobutylate in a predetermined dose every morning for 30 days. Six hours after the last administration, liver and aorta of each rat were taken out and lipid level in the organs of each of the rats were determined. Lipid present in the liver and aorta was extracted with methanol-chloroform (1:1) by allowing it to stand overnight and the extract was assayed as to lipid level.

[1] = especially noticeable when continuously administered; cited from earlier work
blood platelet = assay: Aggregation inhibition activity of blood platelet (ADP-induced, platelet rich plasma of orally dosed rats); type: in vivo, Wister-Imamich strain male rats; conditions: rat, 20 mg/kg oral, 6 hours; adenosine-5'-diphosphate 10^-5 M in platelet rich plasma
Method: In this Example Wister-Imamich strain male rats weighing 230 ± 30 g which had been bred with the use of a commercial chow, CLEA CE-2 were used.
The rats were divided into groups of five members each, and orally administered with a different ascochlorin derivative as a suspension in 2% gum arabic aqueous solution in a dose of 20 mg/kg.body weight. Six hours after the administration, the blood of each rat was sampled from the heart and after the addition of citric acid, the blood sample was centrifuged at 1,500 r.p.m. for 10 minutes to obtain platelet rich plasma. The anti-aggregation effect when the concentration of adenosine-5'-diphosphatein the platelet rich plasma is ultimately 10^^-5 M is shown in Table II.
As positive controls, ascochlorin, ethyl-α-(p-chlorophenoxy) isobutylate and acetyl salicyclic acid were used. The aggregation inhibition ratio was evaluated in percent by comparing the increase of transmission rate caused by the addition of adenosin-5'-diphosphate to platelet rich plasma of the control group (no medication) with that caused on the groups administered with an ascochlorin derivative which is calculated for 100.

[2] = Toxicity by continuous administration for 10 days (body weight); type: in vivo, Wister-Imamichi strain male rats; conditions: rat, 10 mg/head oral once a day
Method: Wister-Imamichi strain male rats weighing 230 ± 30 g were divided into four groups of 10 members each, 3 groups of which were orally administered with 4-O-methylascochlorin in a dose of 10 mg/head, 4-O-methylascochlorin in 20 mg/head and ascochlorin in 10 mg/head, respectively, as a suspension in 2% gum arabic aqueous solution once a day for 10 days. The remaining group was administered with 2% gum arabic aqueous solution, the dose and way of administration being identical to those disclosed above. The increase in body weight of the rats of each group was observed every day during the administration. The results are shown in the graph of FIG. 1.

[3] = Japanese Patent No. 585,252 and U.S. Pat. No. 3,546,073; cited from earlier work
Serum Lipid = assay: Hypolipidemic activity: change in level of serum lipid, 30 days, high-fat feed; type: in vivo, Wister strain rats; conditions: rat
[4] = ascochlorin, background statement; cited from earlier work
Acute toxicity, mouse = conditions: in vivo
Source text: as §1

[5] = Toxicity by continuous administration for 30 days (body weight, deaths); type: in vivo, Wister strain male rats; conditions: rat, 50 mg/kg oral once a day
Method: Wister strain male rats weighing 150 ± 20 g were divided into groups of 10 members each, and each group was orally administered with 4-O-methylascochlorin as a suspension in 2% gum arabic aqueous solution in a predetermined dose once a day for 30 days, and the increase in body weight thereof was observed each day that the administration continued. As controls, ascochlorin (50 mg/kg/day) and ethyl-α-(p-chlorophenoxy) isobutylate (500 mg/kg/day) were used. The results are shown in the graph in FIG. 2.

Cholesterol in serum = assay: Serum cholesterol lowering activity in rats on high-fat feed, single oral dose; type: in vivo, Wister-Imamich strain male rats; conditions: rat, 75 mg/kg oral, 6 hours after administration
Source text: The cholesterol lowering activity of the ascochlorin derivatives of this invention was observed by the use of Wister-Imamich strain male rats weighing 230 ± 30 g which had been bred with the use of high-fat feed comprising 1000 g of powdery chow CLEA CE-2 (sold by NIHON CLEA KABUSHIKI KAISHA) admixed with 10 g of cholesterol, 95 g of hydrogenated coconut oil, 2 g of cholic acid, 150 g of milk casein and 671 g of sucrose.
The rats were divided into groups of five members each, and orally administered with a different ascochlorin derivative as a suspension in gum arabic aqueous solution in a dose of 75 mg/kg.body weight. The rats were kept from eating food, and 6 hours after the administration, the blood of each rat was sampled from its heart. The total amount of cholesterol in serum was determined by a modified Zurkowski method (Clinical Chemistry, 10, 451, 1964) with the use of a colorimeter for blood analysis (sold by KYOTO DAIICHI KAGAKU).

[6] = 10.0 mg/kg oral, average ± standard error

SMILES: CC(/C=C/[C@@]1(C)[C@H](C)CCC(=O)[C@@H]1C)=C\Cc1c(O)c(Cl)c(C)c(C=O)c1O [ascochlorin, reference compound]
- LD50 (Acute toxicity, rat; ip): 258 mg/kg
- LD50 (Acute toxicity, rat; oral): > 7000 mg/kg
- Cholesterol in Liver, increasing or reducing ratio based on the control (Lipid in liver and aorta): +6.5
- Cholesterol in Tunica intima of aorta abdominalis, increasing or reducing ratio based on the control (Lipid in liver and aorta): -4.0
- Phospholipid in Liver, increasing or reducing ratio based on the control (Lipid in liver and aorta): -1.0
- Triglyceride in Liver, increasing or reducing ratio based on the control (Lipid in liver and aorta): -7.3
- Cholesterol in Liver (Lipid in liver and aorta; average ± standard error): 36.2 ± 3.5 mg/g
- Phospholipid in Liver (Lipid in liver and aorta; average ± standard error): 69.5 ± 4.2 mg/g
- Triglyceride in Liver (Lipid in liver and aorta; average ± standard error): 20.2 ± 2.5 mg/g
- toxicity [1]: strong in toxicity
- Aggregation Inhibition Ratio (blood platelet): 66.8%
- increase in body weight [2]: increased only slightly in body weight
- known activities [3]: anti-viral, anti-tumor, anti-bacterial and sedative activities and, further, cholesterol-lowering activity
- Serum Cholesterol, increasing or reducing ratio based on the control (Serum Lipid; 10.0 mg/kg oral): -8.8
- Serum Free fatty acid, increasing or reducing ratio based on the control (Serum Lipid; 10.0 mg/kg oral): -4.0
- Serum Phospholipid, increasing or reducing ratio based on the control (Serum Lipid; 10.0 mg/kg oral): -4.5
- Serum Triglyceride, increasing or reducing ratio based on the control (Serum Lipid; 10.0 mg/kg oral): -10.0
- Serum β-Lipoprotein, increasing or reducing ratio based on the control (Serum Lipid; 10.0 mg/kg oral): -5.6
- Serum Cholesterol (Serum Lipid; [6]): 97.4 ± 4.8 mg/dL
- Serum Free fatty acid (Serum Lipid; [6]): 48.3±4.7 μ eq./dl
- Serum Phospholipid (Serum Lipid; [6]): 130.1 ± 8.4 mg/dL
- Serum Triglyceride (Serum Lipid; [6]): 72.0 ± 13.2 mg/dL
- Serum β-Lipoprotein (Serum Lipid; [6]): 720 ± 114 mg/dL
- lowering of lipids in serum, liver and aorta (such effects) (Serum Lipid; oral, groups of Tables IV and V): such effects were not observed
- hypolipidemic activity [4]: inadequate in its hypolipidemic activity
- LD50 (Acute toxicity, mouse; ip, female): 68 mg/kg
- LD50 (Acute toxicity, mouse; ip, male): 102 mg/kg
- LD50 (Acute toxicity, mouse; po, female): > 5000 mg/kg
- LD50 (Acute toxicity, mouse; po, male): > 5000 mg/kg
- increase in body weight ([5]; 50 mg/kg): little or no increase in body weight; also recorded: lost weight
- rats died during the test period ([5]; group of 10): three
- Cholesterol in serum (Cholesterol in serum): 101.3 mg/dL
